# Read-outs that look alike come from different tables or passages of the source.
# Columns and labels:
# [1] = system: subjects with mixed dyslipidemia; settings: 8 weeks, cited from earlier work
# subjects with PBC [2] = experiment: High dose trial in PBC (NCT02609048); format: in vivo, human; settings: for cases of asymptomatic increases in transaminases: reversible on cessation of treatment, no elevation of TBIL; for mean decrease from baseline in ALP: last observation carried forward, at least two weeks of treatment; for reduction of LDL-C: after two weeks of dosing
# Text: The trial subjects were adult, male or female, with a diagnosis of PBC by at least two of the following three criteria: (a) a history of alkaline phosphatase (ALP) above the upper limit of normal (ULN) for at least six months, (b) positive anti-mitochondrial antibody titers >1/40 on immunofluorescence or M2 positive by enzyme linked immunosorbent assay or positive PBC-specific antinuclear antibodies, and (c) documented liver biopsy result consistent with PBC, on a stable and recommended dose of UDCA for the past twelve months or UDCA intolerant, and ALP≥1.67×ULN. Exclusion criteria included AST or ALT≥3×ULN, total bilirubin (TBIL)≥2×ULN, autoimmune hepatitis or a history of chronic viral hepatitis, PSC, the current use of fibrates or simvastatin, the use of colchicine, methotrexate, azathioprine, or systemic steroids in the previous two months, the use of an experimental treatment for PBC, and the use of an experimental or unapproved immunosuppressant. The primary study endpoint was decrease in ALP, and the secondary endpoint was the responder rate for subjects achieving ALP<1.67×ULN and total bilirubin within normal limit, and >15% decrease in ALP. Additional secondary endpoints were changes in GGT, TBIL, and 5′-nucleotidase, which are other recognized biochemical markers of cholestasis. […] During the study, three cases of asymptomatic increases in transaminases were observed (two in the 200 mg and one in the 50 mg groups). All three were reversible on cessation of treatment and were not accompanied by elevation of TBIL. Since the study had already shown a clear efficacy signal, the study was discontinued. […] According to the original statistical plan, changes in ALP were calculated using the last observation carried forward. The mean decreases from baseline in ALP for the 50 mg/day and 200 mg/day dose groups were 57% and 62%, respectively, compared with 0.37% for placebo (p<0.0001 for both). The responder rates for the placebo, 50 mg/day, and 200 mg/day groups were 10%, 67% and 100%, respectively, despite the baseline ALP levels being different at 239, 313, and 280 U/L. The p-values comparing the responder rates for the 50 mg/day and 200 mg/day groups with placebo were 0.020 and 0.0004 (Fisher's Exact Test), respectively.
# subjects with PBC [3] = experiment: Low-dose trial in PBC (NCT02955602); format: in vivo, human
# Description: In the main study, running for 12 weeks, subjects were to receive either 2, 5, or 10 mg/day; while in an extension study, running for an additional 40 weeks, subjects in the 2 mg/day group were allowed to continue at the 2 mg/day dose or shift to either 5 or 10 mg/day, subjects in the 5 mg/day group were allowed to continue at the 5 mg/day dose or shift to 10 mg/day, and subjects in the 10 mg/day group were allowed to continue at the 10 mg/day dose or shift to 5 mg/day. At baseline (the mean of the screening values and the value at day 1), the subjects had the following values, with numbers in parentheses denoting standard deviations: The study has now been analyzed through 26 weeks: the 12 weeks of the main study and 14 weeks of the extension study.
# [4] = system: subjects with an intrahepatic cholestatic disease such as PSC; experiment: Trial in PSC; format: in vivo, human; settings: 1, 2, 5, and 10 mg/day oral
# Description: Subjects are permitted their usual other medications, including UDCA. […] At each visit, after a 12-hour fast, blood is drawn and urine collected; and a standard metabolic panel, complete blood count, and standard urinalysis are performed. Blood is analyzed for TC, HDL-C, TG, VLDL-C, LDL-C, and apolipoprotein B, for liver function markers such as total and bone-specific ALP, for GGT, and also for total and conjugated bilirubin. The subjects also maintain health diaries, which are reviewed at each visit.
# [5] = Preclinical study of elimination; format: in vivo
# [6] = Exposure study in hepatic impairment (Child-Pugh classes B and C); format: in vivo, human; settings: subjects with significant hepatic impairment
# Text: These amounts represent an average daily dose, and not necessarily an amount given at a single dose. Dosing may be as frequent as more than once/day (where the amount, or daily dose, will be divided between the number of administrations per day), but will more typically be once/day (where the amount is given in a single administration). Optionally, particularly in cases of significant hepatic impairment, the dosing may be less frequent than once/day, such as between once/week and every other day, for example once/week, twice/week (especially with the doses at least three days apart), three times/week (especially with the doses at least two days apart), or every other day; so that, as an example, a subject may receive 5 mg twice/week for an amount (daily dose) of 1.4 mg/day.
# PPARα = target: T1, PPARα (Homo sapiens, UniProt Q07869); settings: PPARδ vs PPARα; cited from earlier work
# T1 sequence (Q07869 1-468): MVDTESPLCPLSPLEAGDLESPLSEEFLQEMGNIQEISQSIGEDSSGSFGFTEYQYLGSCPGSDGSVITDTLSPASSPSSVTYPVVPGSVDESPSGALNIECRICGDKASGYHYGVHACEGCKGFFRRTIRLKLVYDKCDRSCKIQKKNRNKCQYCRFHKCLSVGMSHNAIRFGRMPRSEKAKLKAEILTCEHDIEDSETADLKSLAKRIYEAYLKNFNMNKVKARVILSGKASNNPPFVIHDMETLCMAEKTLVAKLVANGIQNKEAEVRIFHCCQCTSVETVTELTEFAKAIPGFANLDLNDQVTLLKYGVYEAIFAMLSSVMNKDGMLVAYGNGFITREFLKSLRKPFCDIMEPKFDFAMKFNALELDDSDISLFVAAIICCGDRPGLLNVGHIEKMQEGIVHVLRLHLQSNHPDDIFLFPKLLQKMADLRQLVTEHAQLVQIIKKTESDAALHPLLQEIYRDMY
# [7] = combined 5 mg/day and 5 to 10 mg/day group, 26 weeks
# [8] = through 26 weeks, 2, 5, 10 mg/day
# [9] = seladelpar 50 or 100 mg alone or combined with ATV 20 mg, once daily oral, compared to placebo
structure (smiles),measurement,setting,value
"CC(C)c1c(C(=O)Nc2ccccc2)c(-c2ccccc2)c(-c2ccc(F)cc2)n1CC[C@@H](O)C[C@@H](O)CC(=O)O [ATV, atorvastatin, reference compound]",increase of GGT,[1]; ATV 20 mg group,2%
same,reduction of ALP,[1]; ATV 20 mg group,6%
"CCO[C@H](COc1ccc(C(F)(F)F)cc1)CSc1ccc(OCC(=O)O)c(C)c1 [seladelpar, [4-({(2R)-2-ethoxy-3-[4-(trifluoromethyl)phenoxy]propyl}sulfanyl)-2-methylphenoxy] acetic acid]",cases of asymptomatic increases in transaminases,subjects with PBC [2]; 50 mg group,one
same,"responder rate (ALP<1.67×ULN, total bilirubin within normal limit, >15% decrease in ALP)",subjects with PBC [2]; 50 mg/day,67%
same,mean decrease from baseline in ALP,subjects with PBC [2]; 50 mg/day oral,57%
same,reduction of LDL-C,subjects with PBC [2]; 50 mg/day,16%
same,cases of asymptomatic increases in transaminases,subjects with PBC [2]; 200 mg group,two
same,"responder rate (ALP<1.67×ULN, total bilirubin within normal limit, >15% decrease in ALP)",subjects with PBC [2]; 200 mg/day,100%
same,mean decrease from baseline in ALP,subjects with PBC [2]; 200 mg/day oral,62%
same,reduction of LDL-C,subjects with PBC [2]; 200 mg/day,26%
same,adverse events of pruritus,"subjects with PBC [2]; on treatment, 50 and 200 mg/day",no adverse events of pruritus were reported on treatment
same,mean reduction in ALP,"subjects with PBC [3]; 2 mg/day, 12 weeks",21%
same,mean reduction in ALT,"subjects with PBC [3]; 2 mg/day, 12 weeks",9%
same,mean reduction in ALP,"subjects with PBC [3]; 5 mg/day, 12 weeks",33%
same,mean reduction in ALT,"subjects with PBC [3]; 5 mg/day, 12 weeks",28%
same,mean reduction in ALP,"subjects with PBC [3]; 5 mg/day, 26 weeks",45%
same,mean reduction in ALT,"subjects with PBC [3]; 10 mg/day group, 26 weeks",43%
same,subjects with ALP≤1.67×ULN,"subjects with PBC [3]; 10 mg/day group, 26 weeks",79%
same,subjects with ALP≤ULN,"subjects with PBC [3]; 10 mg/day group, 26 weeks",32%
same,subjects with TBIL≤ULN,"subjects with PBC [3]; 10 mg/day group, 26 weeks",89%
same,subjects with a decrease in ALP of ≥15%,"subjects with PBC [3]; 10 mg/day group, 26 weeks",89%
same,mean reduction in ALP,"subjects with PBC [3]; 10 mg/day, 12 weeks",45%
same,mean reduction in ALT,"subjects with PBC [3]; 10 mg/day, 12 weeks",35%
same,mean reduction in ALP,"subjects with PBC [3]; 10 mg/day, 26 weeks",43%
same,mean reduction in ALP,"subjects with PBC [3]; 5 to 10 mg/day, 26 weeks",43%
same,mean reduction in ALT,subjects with PBC [3]; [7],40%
same,subjects with ALP≤1.67×ULN,subjects with PBC [3]; [7],68%
same,subjects with ALP≤ULN,subjects with PBC [3]; [7],26%
same,subjects with TBIL≤ULN,subjects with PBC [3]; [7],95%
same,subjects with a decrease in ALP of ≥15%,subjects with PBC [3]; [7],95%
same,signals for drug-induced pruritus,subjects with PBC [3]; [8],no signals for drug-induced pruritus
same,transaminase safety signals,subjects with PBC [3]; [8],No transaminase safety signals
same,serious adverse events,"subjects with PBC [3]; through 26 weeks, all doses, all deemed unrelated to seladelpar",6
same,adverse events leading to seladelpar discontinuation,"subjects with PBC [3]; through 26 weeks, all doses, both deemed unrelated to seladelpar",2
same,"improvement in disease, manifested by decrease in ALP and GGT",[4],improvement in their disease
same,concentration of the drug in bile,[5],concentrated in bile
same,main route of elimination,[5],through bile
same,area-under-the-curve exposure for seladelpar and two of its three principal metabolites,[6],increase
same,maximum plasma concentration of seladelpar,[6],significant increase
same,specificity compared with PPARα,PPARα,> 600 fold
same,reduction of LDL,[1]; [9],18-43%
same,reduction of apolipoprotein B-100,[1]; [9],20-38%
same,reduction of free fatty acids,[1]; [9],16-28%
same,reduction of high-sensitivity C-reactive protein (hs-CRP),[1]; [9],43-72%
same,reduction of non-HDL-C,[1]; [9],18-41%
same,reduction of triglycerides (TGs),[1]; [9],26-30%
same,rise of HDL-C,[1]; [9],1-12%
same,number of patients with the metabolic syndrome and a preponderance of small LDL particles,[1]; seladelpar alone and in combination with ATV,reduced the number of patients with the metabolic syndrome and a preponderance of small LDL particles
same,reduction of ALP,[1]; seladelpar groups,32-43%
same,reduction of GGT,[1]; seladelpar groups,24-28%

# — patent US10813896B2, “Treatment of intrahepatic cholestatic diseases” (CymaBay Therapeutics, Inc., priority 2017, dated 2020)
